# Experimental data as given in US8435582B2, “Beverage preservative system containing Pimaricin-Povidone complex” (PepsiCo, Inc., priority 2009, dated 2013).
# Like-named read-outs stand apart in the source and are kept apart here.
# Columns and labels:
# physchem = assay type: physicochemical
# From the text: (§1) A 2% fruit juice based non-carbonated beverage of pH 3.4 and about 12 Brix was formed by combining the following ingredients.
# (§2) The preparation of beverage was divided into two aliquots.
# [1] = test system: Talaromyces flavus var flavus ATCC 10512; assay: Growth inhibitory effect of Pimaricin, beverage medium containing 5% DMSO; assay type: cell-based; conditions: spores generated on PDA at 25 °C
# From the text: as §1, §2
# (§3) The second aliquot of beverage is identical to the first aliquot except for the presence of pimaricin. It also contains 5% DMSO. […] The tubes were sealed in a manner that prohibits moisture evaporation.
# (§4) Yeast employed in the study are Zygosaccharomyces bisporus (ATCC 52407) Zygosaccharomyces bailii (ATCC 60484), Saccharomyces cerevisiae (Pepsi Isolate Y99), Brettanomyces (Pepsi Isolate Chemy 7UP), and Zygosaccharomyces (Pepsi Isolate Y2).
# (§5) The mold spores employed were obtained from the following organisms Paecilomyces variotii (Pepsi isolate D16), Penicillium camembertii (Pepsi isolate M3), (Talaromyces flavus var. flavus (ATCC 10512), Byssochlamys nieva (ATCC 36614), and Byssochlamys fulva ATCC 10099). Each spore type was present initially at 20 spores per milliliter of product. Spores for a couple of strains of mold (such as Byssochlamys nieva) were developed at both 25° C. on Potato Dextrose and 30° C. on Malt Extract in order to ensure some variation in the ratio of asci (ascospores) to conidiospores.
# [2] = test system: Byssochlamys nieva ATCC 36614; assay: as above; assay type: cell-based; conditions: 2688 h; 5% DMSO beverage pH 3.4, 25° C.; spores generated on PDA at 25 °C; read-out: Observed MIC (16 week)
# From the text: as §1, §2, §3, §4, §5
# [3] = test system: Paecilomyces variotii Pepsi Isolate; assay: as above; assay type: cell-based; conditions: pH 3.4, 5% DMSO beverage pH 3.4, 25° C., read-out: Observed MIC (16 week)
# From the text: as §1, §2, §3, §4, §5
# [4] = test system: Brettanomyces Pepsi Isolate; assay: as above; assay type: cell-based; conditions: 2688 h, 5% DMSO beverage pH 3.4, 25° C., PDA, read-out: Observed MIC (16 week)
# From the text: as §1, §2, §3, §4, §5
# [5] = test system: Penicillium camembertii Pepsi Isolate; assay: as above; assay type: cell-based; conditions: pH 3.4, 5% DMSO beverage pH 3.4, 25° C., read-out: Observed MIC (16 week)
# From the text: as §1, §2, §3, §4, §5
# [6] = test system: Zygosaccharomyces bisporus ATCC 52407; assay: as above; assay type: cell-based; conditions: ATCC52407, 5% DMSO beverage pH 3.4, 25° C., PDA, read-out: Observed MIC (16 week)
# From the text: as §1, §2, §3, §4, §5
# [7] = test system: Zygosaccharomyces bailli ATCC 60484; assay: as above; assay type: cell-based; conditions: ATCC60484, 5% DMSO beverage pH 3.4, 25° C., PDA, read-out: Observed MIC (16 week)
# From the text: as §1, §2, §3, §4, §5
# [8] = test system: Saccharomyces cerevisiae Pepsi Isolate; assay: as above; assay type: cell-based; conditions: 5% DMSO beverage pH 3.4, 25° C., PDA, read-out: Observed MIC (16 week)
# From the text: as §1, §2, §3, §4, §5
# [9] = test system: Byssochlamys fulva ATCC 10099; assay: as above; assay type: cell-based; conditions: Paecilomyces fulvus, ATCC10099, pH 3.4, 5% DMSO beverage pH 3.4, 25° C., read-out: Observed MIC (16 week)
# From the text: as §1, §2, §3, §4, §5
# [10] = test system: Zygosaccharomyces bailli Pepsi Isolate; assay: as above; assay type: cell-based; conditions: 5% DMSO beverage pH 3.4, 25° C., PDA, read-out: Observed MIC (16 week)
# From the text: as §1, §2, §3, §4, §5
# [11] = 25° C., pH approximately 6.4; cited from earlier work
# [12] = test system: Byssochlamys fulva ATCC 10099; assay: 16 week MIC of un-complexed Pimaricin in 2% juice beverage, mold spores; assay type: cell-based; conditions: Paecilomyces fulvus, ATCC10099; beverage pH 3.4, 25° C., 20 spores/ml, spores from Potato Dextrose 25 °C; read-out: 16 week incubation MIC
# [13] = test system: Talaromyces flavus var flavus ATCC 10512; assay: as above; assay type: cell-based; conditions: ATCC10512, beverage pH 3.4, 25° C., 20 spores/ml, spores from Potato Dextrose 25 °C, read-out: 16 week incubation MIC
# From the text: as §1, §2
# (§6) The tubes were sealed in a manner that prohibits moisture evaporation.
# (§7) The mold spores employed were obtained from the following organisms. Aspergillus niger isolate of Pepsi; ATCC strain 90900 (Talaromyces spectabilis), ATCC strain 48441 (Pencillium galbrum), ATCC 24088 (Byssochlamys fulva), ATCC 96468 (Neosartorya fischeri) ATCC strain 96463 (Talaromyces flavus) and ATCC strain ATCC 10512 (Talaromyces flavus var. flavus). Each spore type was present at 20 spores per milliliter.
# [14] = test system: Neosartorya fischeri ATCC 96468; assay: as above; assay type: cell-based; conditions: Aspergillus fischeri, ATCC96468; beverage pH 3.4, 25° C., 20 spores/ml, spores from Potato Dextrose 25 °C; read-out: 16 week incubation MIC
# From the text: as §1, §2, §6, §7
# [15] = test system: Penicillium glabrum ATCC 48441; assay: as above; assay type: cell-based; conditions: ATCC48441, beverage pH 3.4, 25° C., 20 spores/ml, spores from Potato Dextrose 25 °C, read-out: 16 week incubation MIC
# From the text: as §1, §2, §6, §7
# [16] = test system: Talaromyces spectabilis ATCC 90900; assay: as above; assay type: cell-based; conditions: Paecilomyces variotii, ATCC90900; beverage pH 3.4, 25° C., 20 spores/ml, spores from Potato Dextrose 25 °C; read-out: 16 week incubation MIC
# From the text: as §1, §2, §6, §7
# [17] = test system: Aspergillus niger isolate of Pepsi; assay: as above; assay type: cell-based; conditions: beverage pH 3.4, 25° C., 20 spores/ml, spores from Potato Dextrose 25 °C, read-out: 16 week incubation MIC
# From the text: as §1, §2, §6, §7
# [18] = test system: Tataromyces flavus ATCC 96463; assay: as above; assay type: cell-based; conditions: Talaromyces flavus, ATCC96463; beverage pH 3.4, 25° C., 20 spores/ml, spores from Potato Dextrose 25 °C; read-out: 16 week incubation MIC
# From the text: as §1, §2, §6, §7
# mold fungi = assay: Preservation of beverage product for 16 weeks, Pimaricin stand alone; assay type: cell-based; conditions: Pimaricin as the only antimicrobial substance (stand alone)
# [19] = spores generated on MEA at 30 °C
# [20] = spores generated on PDA at 25 °C
compound,measurement,setting,value
C[C@@H]1C/C=C/C=C/C=C/C=C/[C@H](O[C@@H]2O[C@H](C)[C@@H](O)[C@H](N)[C@@H]2O)C[C@@H]2O[C@](O)(C[C@@H](O)C[C@H]3O[C@@H]3/C=C/C(=O)O1)C[C@H](O)[C@H]2C(=O)O [Pimaricin],solubility,"physchem; 4 °C, pH 3.4, aqueous buffer, thermodynamic from solid, solubility limit in high acid beverage",10 µg/mL
same,solubility at 24 h,"physchem; 25 °C, pH 3.4, aqueous buffer, thermodynamic from solid, solubility limit in high acid beverage",20 µg/mL
same,solubility limit in high acid beverage,"physchem; 24 h, pH 3.4",about 20 mg/L
same,Observed MIC (16 week),"[1]; 5% DMSO beverage pH 3.4, 25° C.",>72 ppm
same,MIC,"[1]; Talaromyces flavus, ATCC10512, pH 3.4, 5% DMSO beverage pH 3.4, 25° C., read-out: Observed MIC (16 week)",72 µg/mL
same,MIC,[2],46 µg/mL
same,MIC,[3]; [19],> 72 µg/mL
same,MIC,[3]; [20],58.3 µg/mL
same,MIC,[4],2.5 µg/mL
same,MIC,[5]; [19],65 µg/mL
same,MIC,[5]; [20],6.4 µg/mL
same,MIC,[6],2.5 µg/mL
same,MIC,[7],2.5 µg/mL
same,MIC,[8],2.5 µg/mL
same,MIC,[9]; [19],7.9 µg/mL
same,MIC,[9]; [20],2 µg/mL
same,MIC,[10],2.5 µg/mL
same,solubility in pure water,[11],52 µg/mL
same,MIC,[12],16.9 µg/mL
same,MIC,[13],> 20 µg/mL
same,MIC,[14],> 20 µg/mL
same,MIC,[15],5.7 µg/mL
same,MIC,[16],10.3 µg/mL
same,MIC,[17],18.4 µg/mL
same,MIC,[18],> 20 µg/mL
same,minimum initial concentration needed to preserve product for 16 weeks,mold fungi,280 mg Pimaricin per liter
